Results on two sequences are retold here after article PMC10762078, “Role of UPF1-LIN28A interaction during early differentiation of pluripotent stem cells” (Nature Communications, 2024).

The subject of test [1] is CHA15 cells transcriptome / NMD targets. Briefly: RNA-seq of CPP-peptide-treated CHA15 cells (NMD targets, SDGs; Fig. 6a, b, d; Supplementary Fig. 6a; Supplementary Data 2). Type of test: cell-based, Homo sapiens. The settings on record: for gene expression, CPP-P8 / P1: vs P1, RNA-seq; for number of NMD targets significantly changed by CPP-P8: hESCs (CHA15). Here is the method: (§1) For CPP-conjugated peptide delivery, HeLa, 293T, and PA-1 cells were incubated with CPP-conjugated peptides or CPP-FITC at 2 μM in DMEM with 10% FBS for 12 h a day before cell harvest. hPSCs were treated with CPP-conjugated peptides at 10 μM in mTeSR Plus Medium, […] The ROCK inhibitor (Tocris Bioscience, Y-27632) treated-hPSCs were dissociated into single cells using Accutase (Merck, SCR005) and differentiated into ectoderm, mesoderm, and endoderm using the STEMdiff Trilineage Differentiation Kit ([…] Technologies, 05230) following the manufacturer’s protocol. Differentiated cells treated with CPP-conjugated peptides were analysed at 0, 3, and 5 days for ectoderm and endoderm, and at 0, 3, and 4 days for mesoderm.
Total RNA concentration was calculated using Quant-IT RiboGreen (Invitrogen, R11490). To assess the integrity of the total RNA, samples were run on a TapeStation RNA screentape (Agilent). Only high-quality RNA preparations with RNA integrity number greater than 7.0 were used for the RNA library construction. A library was independently prepared with 1 μg of total RNA from each sample using the Illumina TruSeq Stranded mRNA Sample Prep Kit (Illumina, 20020594). The first step in the workflow involves purifying poly‐A-containing mRNA molecules using poly‐T‐attached magnetic beads. Following purification, mRNA was fragmented into small pieces using divalent cations at elevated temperatures. The cleaved RNA fragments were copied into first-strand cDNA using SuperScript II reverse transcriptase (Invitrogen, 18064022) and random primers. This was followed by second-strand cDNA synthesis using DNA polymerase I, RNase H, and dUTP. These cDNA fragments underwent an end repair process, adding a single ‘A’ base and ligating the adapters. The products were purified and enriched via PCR to create the final cDNA library. The libraries were quantified using the KAPA Library Quantification Kits for Illumina Sequencing platforms according to the qPCR Quantification Protocol Guide (KAPA BIOSYSTEMS, KR0405) and qualified using the TapeStation D1000 ScreenTape (Agilent). Indexed libraries were then submitted to an Illumina NovaSeq (Illumina), and Macrogen Inc. performed paired-end (2 × 100 bp) sequencing.
We pre-processed the raw reads from the sequencer to remove low-quality reads and adapter sequences before analysis and aligned the processed reads to Homo sapiens (GRCh37) using HISAT v2.1.0[52]. HISAT utilises two indices for alignment (a global whole-genome index and tens of thousands of small local indexes). These two types of indices are constructed using the same Burrows-Wheeler transform (BWT)/graph FM index (GFM) as Bowtie2. The reference genome sequence of Homo sapiens (GRCh37) and the annotation data were downloaded from the NCBI database. Transcript assembly was processed using StringTie v1.3.4d[53],[54]. […] Differentially expressed genes (DEGs) were analysed by ratio of FPKM or using DESeq2 with read counts. Log2 fold-change value of the NMD targets[25],[32], three germ layer markers, miRNA targets, or SDGs was converted into cumulative frequency curve using the R function, ‘ecdf’ (version 4.0.5). Gene functional classification and Gene ontology (GO) were performed using g:Profiler[56].

Another test relates to hPSCs (CHA15, H9, Pro2). Briefly: Long-term culture with CPP-peptides: morphology, spontaneous differentiation, lineage marker RT-qPCR (Supplementary Fig. 6c). The format is cell-based, human. The protocol:
as §1, with “mesoderm. […]” for “mesoderm.”
cDNA was synthesised using RevertAid Reverse Transcriptase (Thermo Fisher Scientific, EP0441) with synthesised random hexamer (Macrogen) for total RNA or stem-loop primers for miRNA. For RT-qPCR reactions, the SensiFAST SYBR No-ROX kit (Meridian Bioscience) was used according to the manufacturer’s protocol. All data analysis and visualisation were conducted using R 3.6.1 [www.r-project.org] or GraphPad Prism 10. RT primers for miRNA and RT-qPCR primer sequences are provided in Supplementary Data 6. […]
Cell m orphology was visualised by phase contrast m icroscopy. T he red boundary indicated the spontaneously differentiated hPSCs. RT -qPCR was perform ed to m easure the relative levels of each lineage m ark er. […]
5p and m iR-16- 5p was shown as CDF graphs. T he relative level of m RNA was norm alised to that of U6 snRNA in (c, d, and f). K–S tests were used for e and f. Unpaired Student’s t-test was used for c , d, and f . * p < 0.05, ** p < 0.01, *** p < 0.001. Exact p -values were provided in Source data. Data are presented as m ean values ± SEM. All statistical test used were two- sided. T he m inim um num ber of independent biological replicate experim ents was a and e n = 2, b–d and f n = 3. T he experim ents were conducted three tim es, each iteration producing consistent results.
(In qPCR the cycle at which signal appears reflects the starting amount.)

Where [2] appears, read: RT-qPCR, CHA15 cell, group 1, mean of set1-set3, Mean of A = 1.
Where [3] appears, read: RT-qPCR, CHA15 cell, group 2, mean of set1-set3, Mean of A = 1.
[4] abbreviates: RT-qPCR, CHA15 cell, group 3, mean of set1-set3, Mean of A = 1.
Where [5] appears, read: RT-qPCR, H9 cell, group 1, mean of set1-set3, Mean of A = 1.
Setting [6] is: RT-qPCR, H9 cell, group 2, mean of set1-set3, Mean of A = 1.
[7] abbreviates: RT-qPCR, Pro2 cell, group 1, mean of set1-set3, Mean of A = 1.
Setting [8] is: RT-qPCR, Pro2 cell, group 2, mean of set1-set3, Mean of A = 1.

Ends that are not written are not given here.

For “KKKWCRKKKSSADEKRYRALKRTAERELLMNA [CPP-P8, CPP conjugated to P8]”, in test [1] (ACTC1), the “gene expression, CPP-P8 / P1” value was -1.36. For the same sequence, the “gene expression, CPP-P8 / P1” value in test [1] (ACTN1) is listed as -1.23. For the same sequence, the “gene expression, CPP-P8 / P1” value in test [1] (ADAR) was -1.28. Besides, the “gene expression, CPP-P8 / P1” value in test [1] (ADM) is -2.99. Besides, in test [1] (CHA15, 10 μM daily for 5 days), the “levels of the NMD targets” value is reported as “efficiently depressed the levels of the NMD targets”. Further, the “transcripts with significant two-fold change” value in test [1] (CHA15, 5 days, p < 0.05) is given as 69 transcripts. Moreover, in test [1] (CHA15, P8 vs P1 plot (Fig. 6d)), the “CAPN6 expression (dot plot)” value came out at 0.9142, the “CDH6 expression (dot plot)” value amounted to 0.924, the “CYP26A1 expression (dot plot)” value is listed as 1.759 and the “DLX5 expression (dot plot)” value came to 0.5911. For the same sequence, the “number of NMD targets downregulated” value in test [1] (CHA15, |Fc| > 1.2, P < 0.05, of 286 NMD targets) came out at 32 transcripts. The “number of NMD targets significantly changed by CPP-P8” value in test [1] (|Fc| > 1.2, p < 0.05) came out at 51. Also, in test [1] (hPSCs, over 1.2-fold), the “NMD targets commonly regulated with UPF1- and LIN28A-depletion” value was determined as 10 NMD targets; the “transcripts commonly regulated with UPF1- and LIN28A-depletion” value is 230 transcripts. The “cell morphology and spontaneous differentiation” value in the test with hPSCs (CHA15, H9, Pro2) (hPSCs, over 15 days) is “altered the cell morphology, induced spontaneous differentiation, and regulated the levels of differentiated makers”. Besides, the “levels of differentiated markers” value in the test with hPSCs (CHA15, H9, Pro2) (hPSCs, proliferation) was “upregulated the levels of differentiated markers”.

Turning to KKKWCRKKKSSADEKRYRALKRTAERELLMNA [P8], the “number of NMD targets significantly changed by CPP-P8” value in test [1] (|Fc| > 1.2, p < 0.05) was found to be 51. Besides, the “NMD targets as share of significantly changed genes” value in test [1] (hPSCs) was found to be 2.3%. The “number of transcripts significantly regulated” value in test [1] (hPSCs, |Fc| > 1.2, p < 0.05) is on record as 2196 transcripts. In addition, in the test with hPSCs (CHA15, H9, Pro2) (setting [2]), the “CDH9, Mean of column B” value is listed as 3.237; the “DLK1, Mean” value was 13.42; the “DMBX1, Mean” value amounted to 7.311; the “RAX, Mean” value worked out at 3.757. Besides, in the test on hPSCs (CHA15, H9, Pro2) (setting [3]), the “DLK1, Mean” value was 23.82; the “LHX2, Mean” value turned out to be 41.74; the “POU5F1, Mean of column B” value is on record as 0.6246; the “RAX, Mean” value amounted to 18.83. In the test on hPSCs (CHA15, H9, Pro2) (setting [4]), the “CDH9, Mean of column B” value worked out at 2.791; the “LHX2, Mean” value amounted to 5.887; the “POU5F1, Mean of column B” value came out at 0.7547; the “RAX, Mean” value came to 2.315. In the test on hPSCs (CHA15, H9, Pro2) (setting [5]), the “DLK1, Mean” value is on record as 3.511; the “DMBX1, Mean” value is 5.531; the “LHX2, Mean” value was 2.919; the “PAX6, Mean of column B” value was 3.972. In addition, in the test with hPSCs (CHA15, H9, Pro2) (setting [6]), the “DLK1, Mean” value was 2.588; the “LHX2, Mean” value is 115.8; the “NANOG, Mean” value came out at 0.1136; the “TBX6, Mean of column B” value is given as 22.31. In the test on hPSCs (CHA15, H9, Pro2) (setting [7]), the “DLK1, Mean” value was 6.526; the “LHX2, Mean” value came out at 0.3053; the “POU5F1, Mean of column B” value came out at 0.5752; the “RAX, Mean” value was determined as 3.096. For the same sequence, in the test on hPSCs (CHA15, H9, Pro2) (setting [8]), the “DLK1, Mean” value was 9.273; the “LHX2, Mean” value was 16.93; the “NANOG, Mean” value was 0.2569; the “POU5F1, Mean of column B” value was 0.08931.
